Measured values as given in patent US12187716B2, “TYK2 kinase inhibitors” (SAREUM LIMITED, priority 2018, dated 2025).
Like-named read-outs stand apart in the source and are kept apart here.

Legend:
[1] = Hepatocyte stability assay, dog; type: in vitro ADME; details: male, Beagle, pooled hepatocytes, 37° C.
Procedure: (§1) Test and control compounds were incubated with hepatocytes at 37° C. Aliquots were removed at 6 timepoints over a one hour period. Samples were centrifuged and the supernatant fractions analysed for parent compound by mass spectrometry (LC-MS/MS).
(§2) The amount of compound remaining (expressed as %) was determined from the MS response in each sample relative to that in the T=0 samples, and used to determine the half-life and intrinsic clearance of the compound.

[2] = Hepatocyte stability assay, human; type: in vitro ADME, human (mixed gender); details: both sexes, pooled hepatocytes, 37° C.
Procedure: as §1, §2

[3] = tested on: IL-17F production in Th17 cells; test: IL-17F production inhibition in Th17 cells derived from human peripheral blood CD4CD45RO+ cells; type: cell-based
Procedure: Fresh human Peripheral blood CD4CD45RO+ cells were purchased commercially (Generon, UK); 3 separate vials from 3 different volunteers for experimental replicates. Cells were grown in T-cell medium (Thermo Fisher) containing 10 ng/ml recombinant human IL-1B (R&D Systems), IL-23 (R&D Systems), TGF-B1 (R&D Systems) and 50 ng/ml IL-6 (R&D Systems) together with anti-CD3/CD28 magnetic Dynabeads (Thermo Fisher). These were grown for 11 days to induce expansion of Th17 cells. Prior to plating for assays cells were grown overnight in T-cell medium supplemented with human serum (1%) overnight. Media was removed and replaced with unsupplemented RPMI for 4 h prior to assay.
To measure IL-17F levels, 200,000 cells were plated into a 96 well plate and preincubated with compounds for 30 minutes followed by stimulation with recombinant IL-23 at 6.25 ng/ml and recombinant human IL-1B at 0.1 ng/ml for 48 h. Supernatants were removed and IL-17F levels measured using a commercially available ELISA kit (Thermo Fisher; BMS2037-2).
ELISAs were carried out according to manufacturers instructions and absorbance read using a microplate reader (Thermo Fisher; Varioskan). Data was normalised to the response in untreated samples using the formula: % of control=((Stimulated sample Conc.−unstimulated sample Conc.)×100)/(Control stimulated Conc.−control unstimulated Conc.)
Graphpad Prism 8.1.0 was used to calculate I050 values using a Nonlinear 4 parameter logistic regression model (4PL).

JAK2 = JAK2 (Homo sapiens, UniProt O60674); test: JAK2 kinase inhibition assay (33P-ATP filter binding, Reaction Biology); details: for selectivity for TYK2 compared to JAK2: biochemical assays; for Selectivity v TYK2: JAK2: ratio of JAK2 IC50 to TYK2 IC50
[4] = IL-23 6.25 ng/ml + IL-1B 0.1 ng/ml, 48 h, Donor 1, read-out: IL17-F Production Inhibition IC50, Donor 1
[5] = IL-23 6.25 ng/ml + IL-1B 0.1 ng/ml, 48 h, Donor 2, read-out: IL17-F Production Inhibition IC50, Donor 2
[6] = IL-23 6.25 ng/ml + IL-1B 0.1 ng/ml, 48 h, Donor 3, read-out: IL17-F Production Inhibition IC50, Donor 3
[7] = average of 3 donors, read-out: IL17-F Production Inhibition IC50, Average

Sequence of JAK2 (O60674 809-1132): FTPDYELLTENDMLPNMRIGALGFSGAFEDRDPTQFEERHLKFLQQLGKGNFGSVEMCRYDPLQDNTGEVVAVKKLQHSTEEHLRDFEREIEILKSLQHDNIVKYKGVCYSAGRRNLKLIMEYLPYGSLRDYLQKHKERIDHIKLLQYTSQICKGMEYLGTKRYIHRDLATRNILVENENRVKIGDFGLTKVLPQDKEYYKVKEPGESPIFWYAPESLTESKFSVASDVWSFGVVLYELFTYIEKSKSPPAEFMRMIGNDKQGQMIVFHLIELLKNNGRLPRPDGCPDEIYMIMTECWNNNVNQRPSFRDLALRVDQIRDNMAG

Row | hepatocyte CLint [1] [µL/min/1e6 cells] | hepatocyte CLint [2] [µL/min/1e6 cells] | IC50 [3, 4] [nM] | IC50 [3, 5] [nM] | IC50 [3, 6] [nM] | IC50 [3, 7] [nM] | IC50 (JAK2) [nM] | selectivity for TYK2 compared to JAK2 (JAK2) | Selectivity v TYK2: JAK2 (JAK2) | half-life ([1]; read-out: Dog T1/2) [h] | half-life ([2]; read-out: Human T1/2) [h] | SMILES
1 | 29.8 | 9 | 243 | 217 | 148 | 203 |  |  |  |  |  | NC(=O)c1nc(-c2c(Cl)cccc2Cl)oc1Nc1ccc(C(=O)N2CCOCC2)cc1 [Comparative Compound B, 2-(2,6-dichloro-phenyl)-5-[4-(morpholine-4-carbonyl)-phenylamino]-oxazole-4-carboxylic acid amide, reference compound]
2 |  |  | 117 | 134 | 64 | 105 | 50 | approximately 25 fold | 26.3 |  |  | NC(=O)c1nc(-c2c(Cl)cccc2Cl)oc1Nc1ccc(C(=O)N2CCS(=O)(=O)CC2)cc1 [Compound (2)]
3 | 8.8 | 4.2 | 57 | 548 | 105 | 237 | 153 | approximately 32 fold | 32.5 | 3.08 | 5.58 | NC(=O)c1nc(-c2c(Cl)cccc2Cl)oc1Nc1ccc(C(=O)N2CCS(=O)(=O)CC2)c(F)c1 [Compound (3)]
